Assay results as given in US12359238B2 (priority 2017, dated 2025).

System: all wired variants (GDH-S247PDAz, FGM-S247PDAz, FGM-T558PDAz, FGM-S247PCA)
Conditions: read-out: KM^app of all samples (electrochemical); glucose; range over all wired variants; 300 mV vs. Ag/AgCl

SMILES: OC[C@H]1OC(O)[C@H](O)[C@@H](O)[C@@H]1O (stereo partly shown) [glucose]
- Km: 1550 to 1890 µM
